Active and inactive are the calls of the source. The calls are words filed in the database; no cut-off is given here.
Legend:
MGC-803 [1] = assay: Induction of cell cycle arrest in human MGC-803 cells assessed as accumulation of cells at G1 phase at 2.5 uM incubated for 48 hrs by flow cytometry (reference value: 54.46 %); type: functional
NCI-H1299 = assay: Antitumor activity against human NCI-H1299 cells assessed as cell growth inhibition incubated for 72 hrs by MTT assay; type: functional, cell-based; conditions: NCI-H1299, 72 h
PC-3 [2] = assay: Antitumor activity against human PC-3 cells assessed as cell growth inhibition incubated for 72 hrs by MTT assay; type: functional, cell-based; conditions: PC-3, 72 h
NCI-N87 = assay: Antitumor activity against human NCI-N87 cells with low Skp2 expression assessed as cell growth inhibition incubated for 72 hrs by MTT assay; type: functional, cell-based; conditions: NCI-N87, 72 h
A2780 = assay: Antitumor activity against human A2780 cells with low Skp2 expression assessed as cell growth inhibition incubated for 72 hrs by MTT assay; type: functional, cell-based; conditions: A2780, 72 h
MGC-803 [3] = assay: Upregulation of p27 level in human MGC-803 cells upto 10 uM by Western blot analysis; type: functional, cell-based; conditions: time 48.0 hrs, TDE = time-dependent effect
PC-3 [4] = assay: Upregulation of p21 level in human PC-3 cells at 10 uM incubated upto 48 hrs by Western blot analysis; type: functional, cell-based
MGC-803 [5] = assay: Upregulation of p27 level in human MGC-803 cells at 10 uM incubated upto 48 hrs by Western blot analysis; type: functional, cell-based
PC-3 [6] = assay: Induction of cell cycle arrest in human PC-3 cells assessed as accumulation of cells at G1 phase at 5 uM incubated for 48 hrs by flow cytometry (reference value: 57.39 %); type: functional
MGC-803 [7] = assay: Induction of cell cycle arrest in human MGC-803 cells assessed as accumulation of cells at S phase at 2.5 uM incubated for 48 hrs by flow cytometry (reference value: 22.72 %); type: functional
PC-3 [8] = assay: Induction of cell cycle arrest in human PC-3 cells assessed as accumulation of cells at G2 phase at 10 uM incubated for 12 hrs by flow cytometry (reference value: 19.34 %); type: functional
PC-3 [9] = assay: Induction of cell cycle arrest in human PC-3 cells assessed as accumulation of cells at G2 phase at 10 uM incubated for 48 hrs by flow cytometry (reference value: 19.34 %); type: functional
MGC-803 [10] = assay: Induction of cell cycle arrest in human MGC-803 cells assessed as accumulation of cells at S phase at 10 uM incubated for 6 hrs by flow cytometry (reference value: 20.41 %); type: functional
MGC-803 [11] = assay: Induction of cell cycle arrest in human MGC-803 cells assessed as accumulation of cells at G2 phase at 10 uM incubated for 6 hrs by flow cytometry (reference value: 20.64 %); type: functional
MGC-803 [12] = assay: Induction of cell cycle arrest in human MGC-803 cells assessed as accumulation of cells at G1 phase at 10 uM incubated for 12 hrs by flow cytometry (reference value: 57.09 %); type: functional
MGC-803 [13] = assay: Induction of cell cycle arrest in human MGC-803 cells assessed as accumulation of cells at G1 phase at 10 uM incubated for 36 hrs by flow cytometry (reference value: 57.09 %); type: functional
MGC-803 [14] = assay: Induction of cell cycle arrest in human MGC-803 cells assessed as accumulation of cells at S phase at 10 uM incubated for 48 hrs by flow cytometry (reference value: 20.41 %); type: functional
MGC-803 [15] = assay: Induction of cell cycle arrest in human MGC-803 cells assessed as accumulation of cells at G2 phase at 10 uM incubated for 48 hrs by flow cytometry (reference value: 20.64 %); type: functional
PC-3 [16] = assay: Induction of apoptosis in human PC-3 cells assessed as cell shrinkage incubated for 48 hrs; type: functional, cell-based; conditions: dose <= 10.0 µM
PC-3 [17] = assay: Induction of apoptosis in human PC-3 cells assessed as viable cells at 2.5 uM incubated for 48 hrs by annexin V-FITC/PI staining based flow cytometry (reference value: 98.6 %); type: functional; conditions: read-out: Activity
PC-3 [18] = assay: Induction of apoptosis in human PC-3 cells assessed as late apoptotic cells at 2.5 uM incubated for 48 hrs by annexin V-FITC/PI staining based flow cytometry (reference value: 0.45 %); type: functional
PC-3 [19] = assay: Induction of apoptosis in human PC-3 cells assessed as early apoptotic cells at 5 uM incubated for 48 hrs by annexin V-FITC/PI staining based flow cytometry (reference value: 0.85 %); type: functional
PC-3 [20] = assay: Induction of apoptosis in human PC-3 cells assessed as late apoptotic cells at 10 uM incubated for 48 hrs by annexin V-FITC/PI staining based flow cytometry (reference value: 0.45 %); type: functional
MGC-803 [21] = assay: Induction of apoptosis in human MGC-803 cells assessed as early apoptotic cells at 2.5 uM incubated for 48 hrs by annexin V-FITC/PI staining based flow cytometry (reference value: 0.21 %); type: functional
PC-3 [22] = assay: Antitumor activity against human PC-3 cells xenografted in NOD-SCID mouse model assessed as tumor growth inhibition at 50 mg/kg, IG administered once every 2 days for 21 days relative to control; type: functional; conditions: PC-3, po, 504 h, time 21 day, read-out: TGI
[23] = Toxicity in NOD-SCID mouse model xenografted with human PC-3 cells assessed as body weight change at 10 to 50 mg/kg, IG administered once every 2 days for 21 days; type: organism-based; conditions: in vivo, po, 504 h, dose 10-50 mg/kg, time 21 day
PC-3 [24] = assay: Antitumor activity against human PC-3 cells xenografted in NOD-SCID mouse model assessed as p27 accumulation at 10 to 50 mg/kg, IG administered once every 2 days for 21 days by Western blot analysis; type: functional, organism-based; conditions: dose 10-50 mg/kg, time 21.0 day
PC-3 [25] = assay: Antitumor activity against human PC-3 cells xenografted in NOD-SCID mouse model assessed as increase in apoptosis in tumor tissue at 10 to 50 mg/kg, IG administered once every 2 days for 21 days by TUNEL staining based analysis; type: functional, organism-based; conditions: dose 10-50 mg/kg, time 21.0 day
MGC-803 [26] = assay: Antitumor activity against human MGC-803 cells xenografted in NOD-SCID mouse model assessed as increase in apoptosis in tumor tissue at 10 to 50 mg/kg, IG administered once every 2 days for 21 days by TUNEL staining based analysis; type: functional, organism-based; conditions: dose 10-50 mg/kg, time 21.0 day
[27] = Toxicity in NOD-SCID mouse model xenografted with human MGC-803 cells assessed as change in kidney histology at 10 to 50 mg/kg, IG administered once every 2 days for 21 days by H and E staining based analysis; type: organism-based; conditions: in vivo, po, 504 h, dose 10-50 mg/kg, time 21 day
[28] = Toxicity in mouse assessed as decrease in total protein level at 10 to 50 mg/kg; type: organism-based; conditions: in vivo, dose 10-50 mg/kg
[29] = Metabolic stability in mouse liver S9 fraction assessed as half life at 20 umol/L preincubated for 5 mins followed by NADPH addition measured upto 60 mins by LC-MS/MS analysis; type: ADME, subcellular; conditions: dose 20 µmol/L, time < 65 min
[30] = Cmax in plasma of NOD-SCID mouse model xenografted with human PC-3 cells at 25 mg/kg, IG measured upto 48 hrs by LC-MS/MS analysis; type: ADME, organism-based; design: time < 48 hrs, dose 25 mg/kg, route ig; conditions: po
[31] = Apparent volume of distribution in tumor of NOD-SCID mouse model xenografted with human PC-3 cells at 25 mg/kg, IG measured upto 48 hrs by LC-MS/MS analysis; type: ADME, organism-based, Neoplasm; conditions: in vivo, po

O=C(CCl)NC1CCN(c2cnc(-c3ccccc3)c(-c3ccccc3)n2)CC1
Activity (MGC-803 [1]): 49.77% | IC50 (NCI-H1299): 7.1 µM | IC50 (PC-3 [2]): 4.8 µM | IC50 (NCI-N87): 15.5 µM | IC50 (A2780): 14.3 µM | Activity (MGC-803 [3]): Tde | Activity (PC-3 [4]): Active | Activity (MGC-803 [5]): Active | Activity (PC-3 [6]): 44.65% | Activity (MGC-803 [7]): 26.89% | Activity (PC-3 [8]): 21.89% | Activity (PC-3 [9]): 16.14% | Activity (MGC-803 [10]): 29.93% | Activity (MGC-803 [11]): 17.82% | Activity (MGC-803 [12]): 46.55% | Activity (MGC-803 [13]): 35.48% | Activity (MGC-803 [14]): 38.76% | Activity (MGC-803 [15]): 21.86% | Activity (PC-3 [16]): Dose-Dependent Effect | viability at 2.5 µM (PC-3 [17]): 92.2% | Activity (PC-3 [18]): 4.97% | Activity (PC-3 [19]): 0.33% | Activity (PC-3 [20]): 27.9% | Activity (MGC-803 [21]): 2.85% | inhibition in vivo at 50 mg/kg (PC-3 [22]): 90.4% | Activity [23]: Non-Toxic | Activity (PC-3 [24]): Active | Activity (PC-3 [25]): Active | Activity (MGC-803 [26]): Active | Activity [27]: Non-Toxic | Activity [28]: Toxic | half-life at 20 µM [29]: 16.5 min | Cmax [30]: 176 ng/mL | Vz [31]: 170.8 L/kg

— ChEMBL document CHEMBL5338791, “Discovery of Novel 1,3-Diphenylpyrazine Derivatives as Potent S-Phase Kinase-Associated Protein 2 (Skp2) Inhibitors for the Treatment of Cancer” (J Med Chem, 2023)
